Data on one compound can be found in patent US9433607B2, “Composition for prevention or treatment of cancer comprising N-methylenenaphtho[2,1-b]furan-2-carbohydrazide derivatives as an active ingredient” (KOREA RESEARCH INSTITUTE OF BIOSCIENCE AND BIOTECHNOLOGY, priority 2012, dated 2016).

One assay has as its system Hep3B. Briefly: Anti-proliferative MTT assay, Hep3B. The class given is cell-based. The conditions noted are these: Homo sapiens, 96 h, Liver, 4 days. Here is the method:
(§1) Various cancer cell lines (rectal cancer, prostate cancer, breast cancer, lung cancer, stomach cancer, liver cancer, leukemia, brain cancer, and glioma cell lines) were cultured in microtiter plate (1-3×10^3 cells/well), to which ethyl(2-methyl-3{(E)-[(naphtho[2,1-b]furan-2-ylcarbonyl)hydrazono]methyl}-1H-indole-1-yl)acetate was treated. The culture continued for 4 days. Cytotoxicity was investigated by MTT assay by the same manner as described in Example <1-2>. IC50 was calculated by long-dose response curve. The data presents the mean value obtained from the assay performed in triplicate.

Another assay concerns HepG2. Briefly: Anti-proliferative MTT assay, HepG2. The class given is cell-based. The conditions noted are these: Homo sapiens, 96 h, HepG2, Liver, 4 days. Here is the method:
as §1

Another assay relates to HCT116. Briefly: Anti-proliferative MTT assay, HCT116. The class given is cell-based. The conditions noted are these: Homo sapiens, HCT-116, 96 h, HCT116, Large intestine, 4 days. Here is the method:
as §1

A further assay has as its system PC-3. Briefly: Anti-proliferative MTT assay, PC-3. The conditions noted are these: Homo sapiens, 96 h, PC-3, Prostate, 4 days. The class given is cell-based. Here is the method: as §1
The subject of a further assay is A549. Briefly: Anti-proliferative MTT assay, A549. The class given is cell-based. The conditions noted are these: Homo sapiens, 96 h, A549, Lung, 4 days. Here is the method: as §1
The subject of another assay is NCl-H460. Briefly: Anti-proliferative MTT assay, NCl-H460. The class given is cell-based. The conditions noted are these: 96 h, NCl-H460, Lung, 4 days. Here is the method:
as §1

In a further assay the test system is MDA-MB-231. Briefly: Anti-proliferative MTT assay, MDA-MB-231. The class given is cell-based. The conditions noted are these: Homo sapiens, 96 h, MDA-MB-231, Breast, 4 days. Here is the method: as §1
The next assay concerns SNU-484. Briefly: Anti-proliferative MTT assay, SNU-484. The conditions noted are these: 96 h, SNU-484, Stomach, 4 days. The class given is cell-based. Here is the method:
as §1

For another assay, the system named is SNU-601. Briefly: Anti-proliferative MTT assay, SNU-601. The class given is cell-based. The conditions noted are these: 96 h, SNU-601, Stomach, 4 days. Here is the method: as §1
The next assay deals with HL60. Briefly: Anti-proliferative MTT assay, HL60. The class given is cell-based. The conditions noted are these: Homo sapiens, HL-60, 96 h, HL60, Blood, 4 days. Here is the method:
as §1

Another assay has as its system A-172. Briefly: Anti-proliferative MTT assay, A-172. The class given is cell-based. The conditions noted are these: Homo sapiens, 96 h, A-172, Brain, 4 days. Here is the method:
as §1

The subject of another assay is SNB-75. Briefly: Anti-proliferative MTT assay, SNB-75. The class given is cell-based. The conditions noted are these: Homo sapiens, 96 h, SNB-75, Brain, 4 days. Here is the method: as §1
The next assay deals with U373MG. Briefly: Anti-proliferative MTT assay, U373MG. The class given is cell-based. The conditions noted are these: Homo sapiens, U373 MG, 96 h, Brain, 4 days. Here is the method: as §1
The subject of a further assay is K562. Briefly: Cytotoxicity MTT assay, K562. The class given is cell-based. The conditions noted are these: Homo sapiens, 96 h, 4 days. Here is the method: (§2) Particularly, K562, MCF7 (Bio-Evaluation Center, Korea Research Institute of Bioscience and Biotechnology, Korea), and the multi-drug resistant cell lines thereof, K562/ADR and MCF7/ADR (Bio-Evaluation Center, Korea Research Institute of Bioscience and Biotechnology, Korea) were cultured in microtiter plate (1-3×10^3 cells/well). Then, the cells were treated with ethyl(2-methyl-3{(E)-[(naphtho[2,1-b]furan-2-ylcarbonyl)hydrazono]methyl}-1H-indole-1-yl)acetate, doxorubicin, or taxol, followed by culture for 4 days. Cytotoxicity was investigated by MTT assay by the same manner as described in Example <1-2>. IC50 was calculated by long-dose response curve. The data presents the mean value obtained from the assay performed in triplicate (Table 3).

In a further assay the test system is MCF7. Briefly: Cytotoxicity MTT assay, MCF7. The class given is cell-based. The conditions noted are these: Homo sapiens, 96 h, 4 days. Here is the method: as §2
Assay [1] relates to Various cancer cell lines. Briefly: Anti-proliferative MTT assay, various cancer cell lines (summary). The class given is cell-based. The conditions noted are these: 96 h, range over the cell lines, 4 days, read-out: IC50 across cancer cell lines. Here is the method: as §1
The test system of assay [2] is Cdc25C, Cyclin B1, and Plk1 (Polo-like kinase 1). Briefly: Immunoblotting of proteins regulating cell division. The conditions noted are these: HeLa cells, 17 hours. The class given is cell-based. An excerpt: The effect of ethyl(2-methyl-3{(E)-[(naphtho[2,1-b]furan-2-ylcarbonyl)hydrazono]methyl}-1H-indole-1-yl)acetate on Cdc25C, Cyclin B1, and Plk1 (Polo-like kinase 1), the proteins regulating cell division, was investigated. When Cdc25C is activated in the course of cell division, Cdc25C is hyperphosphorylated so that its movement on SDS-PAGE is slowed down. Based on that principal, Cdc25C activation was investigated. Referring that the expressions of Cyclin B1 and Plk1 are differently regulated in each stage of cell cycle, the expression of each protein was measured. The levels of Cyclin B1 and Plk1 were the lowest in G1 phase.
HeLa cells were treated with DMSO, nocodazole (NOC), or ethyl(2-methyl-3{(E)-[(naphtho[2,1-b]furan-2-ylcarbonyl)hydrazono]methyl}-1H-indole-1-yl)acetate for 17 hours. The cells were harvested, followed by immunoblotting using cyclin B1, Cdc25C, Plk1, and GAPDH specific antibodies. GAPDH was used as a loading control.

The next assay concerns purified tubulin. Briefly: In vitro tubulin polymerization, degree of turbidity. The class given is biochemical. The conditions noted are these: 5 μM, purified tubulin and GTP, 340 nm. Here is the method: To measure the polymerization of tubulin in vitro, the buffer containing the purified tubulin and GTP was treated with ethyl(2-methyl-3{(E)-[(naphtho[2,1-b]furan-2-ylcarbonyl)hydrazono]methyl}-1H-indole-1-yl)acetate at the concentration of 5 μM. DMSO, and the equivalent Taxol and vinblastine were used as the controls. The polymerization of tubulin into microtubules was determined if the degree of turbidity was 340 nm.

The structures appear in SMILES notation.

Consider `CCOC(=O)Cn1c(C)c(/C=N/NC(=O)c2cc3c(ccc4ccccc43)o2)c2ccccc21` [STK899704], for which the IC50 in the assay on Hep3B came to 0.683 µM; with HepG2, 0.82 µM; with HCT116, 0.717 µM; with PC-3, 0.65 µM; in the assay on A549, 0.843 µM; in the assay with NCl-H460, 0.806 µM. For the same compound, the IC50 in the assay with MDA-MB-231 was 0.543 µM; with SNU-484 it was 0.221 µM; with SNU-601, 0.773 µM; with HL60, 0.563 µM; in the assay with A-172, 0.603 µM; in the assay with SNB-75, 0.588 µM. In addition, the IC50 in the assay on U373MG was 0.517 µM; in the assay on K562, 0.45 µM; in the assay with MCF7 it was 1060 µM; in [1], 0.22 to 1.06 µM. The “effect on Cdc25C, cyclin B1 and Plk1 (immunoblotting)” value in [2] was “Cdc25C was phosphorylated and cyclin B1 and Plk1 were accumulated”. For the same compound, in the assay on purified tubulin, the “degree of turbidity (tubulin polymerization) compared with Taxol” value is listed as “the degree of turbidity was lower”.
